Values joined by “and” are separate entries in the source; they are usually repeats but may differ in a detail not shown here. Equal values may be shown once.
Row | SMILES | melting point
1 | CCOCCN(C(=O)Nc1ccc(C(=O)O)cc1)c1ccc2c(c1)C(C)(C)CCC2(C)C [Compound 33, 4-[3-(2-ethoxy-ethyl)-3-(5,5,8,8-tetramethyl-5,6,7,8-tetrahydro-naphthalen-2-yl)-ureido]-benzoic acid] | 82 to 85 °C
2 | CC1(C)CCC(C)(C)c2cc(N(CCCCOCc3ccccc3)C(=O)Nc3ccc(C(=O)O)cc3)ccc21 [Compound 41, 4-[3-(4-benzyloxy-butyl)-3-(5,5,8,8-tetramethyl-5,6,7,8-tetrahydro-naphthalen-2-yl)-ureido]-benzoic acid] | 158 to 162 °C
3 | CCCCCN(C(=O)Nc1ccc2c(c1)C(C)(C)CCC2(C)C)c1ccc(C(=O)O)cc1 [Compound 42, 4-[1-pentyl-3-(5,5,8,8-tetramethyl-5,6,7,8-tetrahydro-naphthalen-2-yl)-ureido]-benzoic acid] | 201 to 202 °C
4 | CCCCCN(C(=O)Nc1ccc(C(=O)O)cn1)c1ccc2c(c1)C(C)(C)CCC2(C)C [Compound 49, 6-[3-pentyl-3-(5,5,8,8-tetramethyl-5,6,7,8-tetrahydro-naphthalen-2-yl) -ureido]-nicotinic acid] | 175 to 179.5 °C
5 | Cc1cc(CN(C(=O)Nc2ccc(C(=O)O)cc2)c2ccc3c(c2)C(C)(C)CCC3(C)C)no1 [Compound 57, 4-[3-(5-methyl-isoxazol-3-ylmethyl)-3-(5,5,8,8-tetramethyl-5,6,7,8-tetrahydro-naphthalen-2-yl)-ureido]-benzoic acid] | 188 to 193 °C and 188.2 to 193 °C
6 | CC1(C)CCC(C)(C)c2cc(N(CCCCO)C(=O)Nc3ccc(C(=O)O)cc3)ccc21 [Compound 71, 4-[3-(4-hydroxy-butyl)-3-(5,5,8,8-tetramethyl-5,6,7,8-tetrahydro-naphthalen-2-yl)-ureido]-benzoic acid] | 124 to 125 °C
7 | CCN(C(=O)N(CC)c1ccc2c(c1)C(C)(C)CCC2(C)C)c1ccc(C(=O)O)cc1 [Compound 73, 4-[1,3-diethyl-3-(5,5,8,8-tetramethyl-5,6,7,8-tetrahydro-naphthalen-2-yl)-ureido]-benzoic acid] | 169 to 172 °C

The next lines start with the values.

Row | melting point | SMILES
8 | 223 to 225 °C and 223 to 224.9 °C | CC1(C)CCC(C)(C)c2cc(N(CCc3ccccc3)C(=O)Nc3ccc(C(=O)O)cc3)ccc21 [Compound 5, 4-[3-phenethyl-3-(5,5,8,8-tetramethyl-5,6,7,8-tetrahydro-naphthalen-2-yl)-ureido]-benzoic acid]
9 | 143 to 146 °C and 143.1 to 145.9 °C | CC1(C)CCC(C)(C)c2cc(N(Cc3ccc(F)cc3)C(=O)Nc3ccc(C(=O)O)cc3)ccc21 [Compound 19, 4-[3-(4-fluorobenzyl)-3-(5,5,8,8-tetramethyl-5,6,7,8-tetrahydro-naphthalen-2-yl)-ureido]-benzoic acid]
10 | 126 to 133.1 °C and 126 to 133 °C | CC1(C)CCC(C)(C)c2cc(N(Cc3ccc(Cl)cc3)C(=O)Nc3ccc(C(=O)O)cc3)ccc21 [Compound 21, 4-[3-(4-chlorobenzyl)-3-(5,5,8,8-tetramethyl-5,6,7,8-tetrahydro-naphthalen-2-yl)-ureido]-benzoic acid]
11 | 117 to 121 °C and 116.8 to 120.8 °C | COc1ccc(CN(C(=O)Nc2ccc(C(=O)O)cc2)c2ccc3c(c2)C(C)(C)CCC3(C)C)cc1 [Compound 23, 4-[3-(4-methoxybenzyl)-3-(5,5,8,8-tetramethyl-5,6,7,8-tetrahydro-naphthalen-2-yl)-ureido]-benzoic acid]
12 | 167 to 170 °C and 167.1 to 170.1 °C | CC1(C)CCC(C)(C)c2cc(N(Cc3cccs3)C(=O)Nc3ccc(C(=O)O)cc3)ccc21 [Compound 31, 4-[3-(5,5,8,8-tetramethyl-5,6,7,8-tetrahydro-naphthalen-2yl)-3-thiophen-2-ylmethyl-ureido]-benzoic acid]
